Source: patent publication US11666558B2, “Methods of treating intraocular pressure with activators of Tie-2” (EyePoint Pharmaceuticals, Inc., priority 2015, dated 2023)
Like-named read-outs stand apart in the source and are kept apart here.

Experiment: Ocular tissue concentrations (aqueous humor, vitreous humor, iris, retina, choroid, cornea) after topical ocular, subcutaneous and intravitreal administration
Type: in vivo, New Zealand White rabbits
Details: for concentration at 2 h / concentration at 4 h / concentration at 6 h / concentration at 24 h / concentration at 48 h / concentration at 72 h / concentration at 0.5 hr / concentration at 1 h / concentration at 0.5 h: New Zealand White, rabbit; for concentration at 2 h / concentration at 4 h / concentration at 0.5 hr / concentration at 1 h / concentration at 0.5 h: subcutaneous, 5 mg/kg/dose; for concentration at 6 h / concentration at 24 h / concentration at 48 h / concentration at 72 h: other: intravitreal, 2.5 mg/eye; for Cornea Conc. (ng/mL) OS: TABLE 16: Cornea homogenate
Protocol: To measure the concentration of Compound 1 in plasma and ocular tissues following topical ocular, subcutaneous, and intravitreal administration, New Zealand White rabbits were administered Compound 1, and plasma and ocular samples were collected at pre-determined time points. Compound 1 formulations were prepared fresh on each day of dosing.
Ocular tissue samples from both eyes of each animal were collected and weights were recorded. Plasma and ocular tissue sample concentrations of Compound 1 were determined by LC-MS/MS.
New Zealand White rabbits weighing 2.5 to 3.5 kg were used on this study. Rabbits were housed one per cage. Animals were not fasted and only healthy animals with no ocular illness were used. Two rabbits per group were sacrificed at each of four ocular tissue sampling time points for a total of eight rabbits per group.
Animals were anesthetized for ocular (topical) and intravitreal dosing following the 12IA7 IACUC protocol. Each rabbit received a bolus dose of test formulation either via topical ocular administration 3 times daily on Days 1 and 2 (at 0, 6, and 12 hours), and once on Day 3 (at 0 hours) into both eyes; via intravitreal administration into both eyes once on Day 1 (at 0 hours); or via subcutaneous administration 2 times daily on Days 1 and 2 (at 0 and 8 hours) and once daily on Day 3 (at 0 hours). Doses were given within an approximately 1 hour window each day where applicable.
On Day 1, for intravitreal administration, or on Day 3, for topical ocular and subcutaneous administration, at the appropriate ocular tissue collection time points, animals were euthanized and both eyes were enucleated immediately. Following enucleation, each eye was rinsed with phosphate-buffered saline. Ocular tissue samples from both eyes of each animal were collected at predetermined time points and weights were recorded. All the samples were frozen immediately on dry ice, and stored at −60° C. to −80° C. pending bioanalysis.
An LC-MS/MS method was developed for the determination of Compound 1 in rabbit aqueous tissues (plasma, aqueous and vitreous humor) and solid ocular tissue samples. A pre-study standard curve was analyzed to determine the specificity, range, and lower limit of quantitation of the method. Plasma and tissue homogenate study samples were extracted and analyzed. All the samples were treated identically to the standards.
One eight-point standard curve was used in each analytical batch. To be accepted, each batch must have had at least five of eight standards with accuracy within ±20% of nominal, except at the lower limit of quantification (LLOQ), where ±25% was acceptable.
Concentration versus time data is plotted in FIGS. 3-16. All data are expressed as ng/g of the free drug. Samples that were below the limit of quantitation (0.2 ng/mL) were not used in the calculation of averages.

[1] = retina homogenate, Retina homogenate, left eye, intravitreal 2.5 mg/eye (group 5), individual animals, read-out: Conc. (ng/mL) OS
[2] = retina homogenate, Retina homogenate, OD, sodium salt, intravitreal 2.5 mg/eye, Group 4, read-out: Retina Conc. (ng/mL) OD
[3] = retina homogenate, Retina homogenate, right eye, intravitreal 2.5 mg/eye (group 5), individual animals, read-out: Conc. (ng/mL) OD
[4] = retina homogenate, Retina homogenate, OS, sodium salt, intravitreal 2.5 mg/eye, Group 4, read-out: Retina Conc. (ng/mL) OS
[5] = retina, Retina, OD, sodium salt, intravitreal 2.5 mg/eye, Group 4, read-out: Retina Conc. (ng/g) OD
[6] = retina, Retina, sodium salt, intravitreal 2.5 mg/eye, Group 4, read-out: Retina Avg.
[7] = retina, Retina, OS, sodium salt, intravitreal 2.5 mg/eye, Group 4, read-out: Retina Conc. (ng/g) OS
[8] = retina, Retina, average, intravitreal 2.5 mg/eye (group 5), read-out: Avg.
[9] = retina, Retina, left eye, intravitreal 2.5 mg/eye (group 5), individual animals, read-out: Conc. (ng/g) OS
[10] = retina, Retina, right eye, intravitreal 2.5 mg/eye (group 5), individual animals, read-out: Conc. (ng/g) OD

## COC(=O)N[C@@H](Cc1ccccc1)C(=O)N[C@@H](Cc1ccc(NS(=O)(=O)O)cc1)c1csc(-c2cccs2)n1 [Compound 1]
iris, TABLE 16: Iris, 2 hr, OD, free acid, subcutaneous 5 mg/kg/dose, Group 3, read-out: Iris Conc. (ng/g) OD
  concentration at 2 h: 30.5 ng/g
iris, TABLE 16: Iris, 2 hr, OS, free acid, subcutaneous 5 mg/kg/dose, Group 3, read-out: Iris Conc. (ng/g) OS
  concentration at 2 h: 29.5 ng/g
iris, TABLE 16: Iris, 2 hr, free acid, subcutaneous 5 mg/kg/dose, Group 3, read-out: Iris Average
  concentration at 2 h: 27.6 ng/g
iris, TABLE 16: Iris, 4 hr, OD, free acid, subcutaneous 5 mg/kg/dose, Group 3, read-out: Iris Conc. (ng/g) OD
  concentration at 4 h: 26.5 ng/g
iris, TABLE 16: Iris, 4 hr, OS, free acid, subcutaneous 5 mg/kg/dose, Group 3, read-out: Iris Conc. (ng/g) OS
  concentration at 4 h: 16.9 ng/g
iris, TABLE 16: Iris, 4 hr, free acid, subcutaneous 5 mg/kg/dose, Group 3, read-out: Iris Average
  concentration at 4 h: 17.5 ng/g
[1]
  concentration at 6 h: 154000 ng/mL
  concentration at 72 h: 10800 ng/mL
[2]
  concentration at 24 h: 29200 ng/mL
  concentration at 48 h: 6490 ng/mL
  concentration at 72 h: 750 ng/mL
[3]
  concentration at 24 h: 130000 ng/mL
  concentration at 48 h: 66700 ng/mL
  concentration at 72 h: 9890 ng/mL
[4]
  concentration at 48 h: 6030 ng/mL
  concentration at 72 h: 370 ng/mL
Retina homogenate, Retina homogenate, OD, sodium salt, subcutaneous 5 mg/kg/dose, Group 2, read-out: Retina Conc. (ng/mL) OD
  concentration at 0.5 hr: 2.77 ng/mL
Retina homogenate, Retina homogenate, OS, sodium salt, subcutaneous 5 mg/kg/dose, Group 2, read-out: Retina Conc. (ng/mL) OS
  concentration at 0.5 hr: 4.36 ng/mL
Retina homogenate, Retina homogenate, 1 hr, OD, free acid, subcutaneous 5 mg/kg/dose, Group 3, read-out: Retina Conc. (ng/mL) OD
  concentration at 1 h: 0.942 ng/mL
Retina homogenate, Retina homogenate, 1 hr, OD, sodium salt, subcutaneous 5 mg/kg/dose, Group 2, read-out: Retina Conc. (ng/mL) OD
  concentration at 1 h: 2.04 ng/mL
Retina homogenate, Retina homogenate, 1 hr, OS, free acid, subcutaneous 5 mg/kg/dose, Group 3, read-out: Retina Conc. (ng/mL) OS
  concentration at 1 h: 0.63 ng/mL
Retina homogenate, Retina homogenate, 1 hr, OS, sodium salt, subcutaneous 5 mg/kg/dose, Group 2, read-out: Retina Conc. (ng/mL) OS
  concentration at 1 h: 3.93 ng/mL
Retina homogenate, Retina homogenate, 2 hr, OD, free acid, subcutaneous 5 mg/kg/dose, Group 3, read-out: Retina Conc. (ng/mL) OD
  concentration at 2 h: 0.574 ng/mL
Retina homogenate, Retina homogenate, 2 hr, OD, sodium salt, subcutaneous 5 mg/kg/dose, Group 2, read-out: Retina Conc. (ng/mL) OD
  concentration at 2 h: 1.36 ng/mL
Retina homogenate, Retina homogenate, 2 hr, OS, sodium salt, subcutaneous 5 mg/kg/dose, Group 2, read-out: Retina Conc. (ng/mL) OS
  concentration at 2 h: 1.62 ng/mL
Retina homogenate, Retina homogenate, 4 hr, OD, sodium salt, subcutaneous 5 mg/kg/dose, Group 2, read-out: Retina Conc. (ng/mL) OD
  concentration at 4 h: 1.79 ng/mL
Retina homogenate, TABLE 16: Retina homogenate, 1 hr, OD, free acid, subcutaneous 5 mg/kg/dose, Group 3, read-out: Retina Conc. (ng/mL) OD
  concentration at 1 h: 0.942 ng/mL
Retina homogenate, TABLE 16: Retina homogenate, 1 hr, OS, free acid, subcutaneous 5 mg/kg/dose, Group 3, read-out: Retina Conc. (ng/mL) OS
  concentration at 1 h: 0.63 ng/mL
Retina homogenate, TABLE 16: Retina homogenate, 2 hr, OD, free acid, subcutaneous 5 mg/kg/dose, Group 3, read-out: Retina Conc. (ng/mL) OD
  concentration at 2 h: 0.574 ng/mL
[5]
  concentration at 6 h: 431000 ng/g
  concentration at 24 h: 321000 ng/g
  concentration at 48 h: 71400 ng/g
  concentration at 72 h: 8250 ng/g
[6]
  concentration at 6 h: 774000 ng/g
  concentration at 24 h: 356000 ng/g
  concentration at 48 h: 72600 ng/g
  concentration at 72 h: 6060 ng/g
[7]
  concentration at 24 h: 308000 ng/g
  concentration at 48 h: 66300 ng/g
  concentration at 72 h: 4070 ng/g
[8]
  concentration at 48 h: 680000 ng/g
  concentration at 72 h: 109000 ng/g
[9]
  concentration at 48 h: 154000 ng/g
  concentration at 72 h: 119000 ng/g
[10]
  concentration at 48 h: 734000 ng/g
  concentration at 72 h: 109000 ng/g
retina, Retina, OD, sodium salt, subcutaneous 5 mg/kg/dose, Group 2, read-out: Retina Conc. (ng/g) OD
  concentration at 0.5 h: 30.5 ng/g
retina, Retina, OS, sodium salt, subcutaneous 5 mg/kg/dose, Group 2, read-out: Retina Conc. (ng/g) OS
  concentration at 0.5 hr: 48 ng/g
retina, Retina, free acid, subcutaneous 5 mg/kg/dose, Group 3, read-out: Retina Average
  concentration at 0.5 h: 38.7 ng/g
retina, Retina, sodium salt, subcutaneous 5 mg/kg/dose, Group 2, read-out: Retina Average
  concentration at 0.5 hr: 40.5 ng/g
retina, Retina, 1 hr, OD, free acid, subcutaneous 5 mg/kg/dose, Group 3, read-out: Retina Conc. (ng/g) OD
  concentration at 1 h: 10.4 ng/g
retina, Retina, 1 hr, OD, sodium salt, subcutaneous 5 mg/kg/dose, Group 2, read-out: Retina Conc. (ng/g) OD
  concentration at 1 h: 22.4 ng/g
retina, Retina, 1 hr, OS, free acid, subcutaneous 5 mg/kg/dose, Group 3, read-out: Retina Conc. (ng/g) OS
  concentration at 1 h: 6.93 ng/g
retina, Retina, 1 hr, OS, sodium salt, subcutaneous 5 mg/kg/dose, Group 2, read-out: Retina Conc. (ng/g) OS
  concentration at 1 h: 43.2 ng/g
retina, Retina, 1 hr, free acid, subcutaneous 5 mg/kg/dose, Group 3, read-out: Retina Average
  concentration at 1 h: 10.2 ng/g
retina, Retina, 1 hr, sodium salt, subcutaneous 5 mg/kg/dose, Group 2, read-out: Retina Average
  concentration at 1 h: 32.6 ng/g
retina, Retina, 2 hr, OD, free acid, subcutaneous 5 mg/kg/dose, Group 3, read-out: Retina Conc. (ng/g) OD
  concentration at 2 h: 6.31 ng/g
retina, Retina, 2 hr, OD, sodium salt, subcutaneous 5 mg/kg/dose, Group 2, read-out: Retina Conc. (ng/g) OD
  concentration at 2 h: 15 ng/g
retina, Retina, 2 hr, OS, free acid, subcutaneous 5 mg/kg/dose, Group 3, read-out: Retina Conc. (ng/g) OS
  concentration at 2 h: 6.93 ng/g
retina, Retina, 2 hr, OS, sodium salt, subcutaneous 5 mg/kg/dose, Group 2, read-out: Retina Conc. (ng/g) OS
  concentration at 2 h: 17.8 ng/g
retina, Retina, 2 hr, free acid, subcutaneous 5 mg/kg/dose, Group 3, read-out: Retina Average
  concentration at 2 h: 10.5 ng/g
retina, Retina, 2 hr, sodium salt, subcutaneous 5 mg/kg/dose, Group 2, read-out: Retina Average
  concentration at 2 h: 16.4 ng/g
retina, Retina, 4 hr, OD, sodium salt, subcutaneous 5 mg/kg/dose, Group 2, read-out: Retina Conc. (ng/g) OD
  concentration at 4 h: 19.7 ng/g
retina, Retina, 4 hr, free acid, subcutaneous 5 mg/kg/dose, Group 3, read-out: Retina Average
  concentration at 4 h: 35.3 ng/g
retina, Retina, 4 hr, sodium salt, subcutaneous 5 mg/kg/dose, Group 2, read-out: Retina Average
  concentration at 4 h: 19.7 ng/g
retina, TABLE 16: Retina, free acid, subcutaneous 5 mg/kg/dose, Group 3, read-out: Retina Average
  concentration at 0.5 h: 38.7 ng/g
retina, TABLE 16: Retina, 1 hr, OD, free acid, subcutaneous 5 mg/kg/dose, Group 3, read-out: Retina Conc. (ng/g) OD
  concentration at 1 h: 10.4 ng/g
retina, TABLE 16: Retina, 1 hr, OS, free acid, subcutaneous 5 mg/kg/dose, Group 3, read-out: Retina Conc. (ng/g) OS
  concentration at 1 h: 6.93 ng/g
retina, TABLE 16: Retina, 1 hr, free acid, subcutaneous 5 mg/kg/dose, Group 3, read-out: Retina Average
  concentration at 1 h: 10.2 ng/g
retina, TABLE 16: Retina, 2 hr, OD, free acid, subcutaneous 5 mg/kg/dose, Group 3, read-out: Retina Conc. (ng/g) OD
  concentration at 2 h: 6.31 ng/g
retina, TABLE 16: Retina, 2 hr, OS, free acid, subcutaneous 5 mg/kg/dose, Group 3, read-out: Retina Conc. (ng/g) OS
  concentration at 2 h: 6.93 ng/g
retina, TABLE 16: Retina, 2 hr, free acid, subcutaneous 5 mg/kg/dose, Group 3, read-out: Retina Average
  concentration at 2 h: 10.5 ng/g
retina, TABLE 16: Retina, 4 hr, free acid, subcutaneous 5 mg/kg/dose, Group 3, read-out: Retina Average
  concentration at 4 h: 35.3 ng/g
Retina homogenate, 4 hr, OD, free acid, subcutaneous 5 mg/kg/dose, Group 3
  Retina Conc. (ng/mL) OD: BLOQ (Below the limit of quantitation (0.5 ng/mL))
Retina homogenate, 4 hr, OS, sodium salt, subcutaneous 5 mg/kg/dose, Group 2
  Retina Conc. (ng/mL) OS: BLOQ (Below the limit of quantitation (0.5 ng/mL))
1 hr, OS, free acid, subcutaneous 5 mg/kg/dose, Group 3
  Cornea Conc. (ng/mL) OS: BLOQ (Below the limit of quantitation (0.5 ng/mL))
2 hr, OS, free acid, subcutaneous 5 mg/kg/dose, Group 3
  Cornea Conc. (ng/mL) OS: BLOQ (Below the limit of quantitation (0.5 ng/mL))
TABLE 16: Retina homogenate, 4 hr, OD, free acid, subcutaneous 5 mg/kg/dose, Group 3
  Retina Conc. (ng/mL) OD: BLOQ (Below the limit of quantitation (0.5 ng/mL))
intravitreal, topical ocular, subcutaneous administration
  rank order of exposure in aqueous and vitreous humor by route: intravitreal>>topical ocular>subcutaneous administration
